Here are results for seven compounds from ChEMBL document CHEMBL1154558, “Cytotoxic prenylxanthones from Garcinia bracteata” (J Nat Prod, 2000).

≈ marks a conversion by molar mass, not a printed value.

Assay [1] can be described thus: Inhibition of FTase by fluorimetry.
The next assay deals with KB. The assay can be described thus: Cytotoxicity against human KB cells by colorimetric assay. Format: functional, cell-based.

By IC50 is commonly meant the concentration that gives 50% inhibition. A low value points to inhibition by little substance. In the case of `C=CC(C)(C)c1c(O)cc(OC)c2c1O[C@]13[C@@H](C2=O)[C@H](OC)[C@@H]2C[C@H]1C(C)(C)O[C@@]3(CC=C(C)C)C2=O`, the Activity in assay [1] is greater than 10 µg/mL. This compound also registered an IC50 in the assay on KB of 1.5 µg/mL (≈ 2.94 µM).

`C=CC(C)(C)c1c(O)cc(OC)c2c1O[C@]13C(=C[C@@H]4C[C@H]1C(C)(C)O[C@@]3(CC=C(C)C)C4=O)C2=O` came in with an Activity in assay [1] greater than 10 µg/mL. For the same compound, the IC50 with KB came to 0.3 µg/mL (≈ 0.627 µM).

In the assay with KB, `CC(C)=CC[C@@]12OC(C)(C)[C@@H]3C[C@@H](C=C4C(=O)c5c(O)cc(O)cc5O[C@]431)C2=O` showed an IC50 of 0.8 µg/mL (≈ 2.02 µM).

In the assay on KB, `C=CC(C)(C)c1c(O)cc(OC)c2c1O[C@@]13C[C@H]4[C@@H](C=C1C2=O)[C@](CC=C(C)C)(OC4(C)C)C3=O` showed an IC50 of 0.2 µg/mL (≈ 0.418 µM).

In assay [1], `C=CC(C)(C)c1c(O)cc(O)c2c1O[C@]13C(=C[C@@H]4C[C@H]1C(C)(C)O[C@@]3(CC=C(C)C)C4=O)C2=O` [BRACTATIN] yielded an Activity of 4.7 µg/mL. Further, in the assay on KB, the IC50 is 0.4 µg/mL (≈ 0.861 µM).

Take `COc1cc2c(c3c1C(=O)C1=C[C@@H]4C[C@H]5C(C)(C)O[C@](CC=C(C)C)(C4=O)[C@@]15O3)C(C)(C)[C@H](C)O2`: in assay [1], the Activity was greater than 10 µg/mL. In the assay on KB, inhibition was half-maximal at 0.8 µg/mL (≈ 1.67 µM) (IC50).

Turning to `CC(C)=CC[C@]12OC(C)(C)[C@@H]3C[C@@H](C=C4C(=O)c5c(O)cc6c(c5O[C@]431)C(C)(C)[C@H](C)O6)C2=O` [ISOBRACTATIN], the Activity in assay [1] worked out at 5.6 µg/mL. In addition, half-maximal inhibition with KB (IC50) was put at 1.5 µg/mL (≈ 3.23 µM).
